Assay results published in ChEMBL document CHEMBL1909046, “DrugMatrix in vitro pharmacology data”.
pIC50, pKi: −log10 of the molar value.

What was measured:
[1] = molecular target: T1, Alpha-1A adrenergic receptor (Rattus norvegicus, UniProt P43140); test: DRUGMATRIX: Alpha-1A adrenergic receptor radioligand binding (ligand: prazosin); assay type: cell membranes, Wistar, Submaxillary gland, Membrane; details: Not Active = under 50% inhibition at 10 µM
T1 sequence (P43140 whole entry): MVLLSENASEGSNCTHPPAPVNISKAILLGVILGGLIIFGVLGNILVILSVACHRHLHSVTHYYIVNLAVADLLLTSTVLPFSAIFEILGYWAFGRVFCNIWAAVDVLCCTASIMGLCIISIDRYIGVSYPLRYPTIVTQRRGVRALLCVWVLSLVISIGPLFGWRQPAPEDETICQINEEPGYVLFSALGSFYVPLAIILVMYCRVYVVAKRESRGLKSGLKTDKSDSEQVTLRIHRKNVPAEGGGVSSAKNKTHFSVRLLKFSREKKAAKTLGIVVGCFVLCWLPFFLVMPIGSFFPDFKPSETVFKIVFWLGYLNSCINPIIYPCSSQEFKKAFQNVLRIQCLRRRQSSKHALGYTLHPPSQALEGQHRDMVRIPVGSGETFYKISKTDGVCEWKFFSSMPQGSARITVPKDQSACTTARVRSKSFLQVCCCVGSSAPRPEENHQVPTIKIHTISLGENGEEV

[2] = molecular target: Prostaglandin G/H synthase 1 (Homo sapiens, UniProt P23219); test: biochemical; assay type: tissue-based, Platelet; details: for IC50: platelet;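 for all read-outs here: inhibition of COX-1 enzyme activity, with arachidonic acid supplied as substrate; in other assays of this panel Not Active means under 50% inhibition at 10 µM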
[3] = molecular target: 5-hydroxytryptamine receptor 2B (Homo sapiens, UniProt P41595); assay type: cell membranes, CHO-K1, Membrane; details: cho-k1; note: in other assays of this panel Not Active means under 50% inhibition at 10 µM
[4] = molecular target: Beta-1 adrenergic receptor (Homo sapiens, UniProt P08588); test: DRUGMATRIX: Adrenergic beta1 radioligand binding (ligand: [125I] Cyanopindolol); assay type: cell membranes, CHO-K1, Membrane; details: cho-k1; Not Active = under 50% inhibition at 10 µM
[5] = molecular target: Beta-3 adrenergic receptor (Homo sapiens, UniProt P13945); test: DRUGMATRIX: Adrenergic beta3 radioligand binding (ligand: [125I] Cyanopindolol); assay type: cell membranes, HEK293, Membrane; details: Not Active = under 50% inhibition at 10 µM; for IC50: hek293
[6] = DRUGMATRIX: Serotonin (5-Hydroxytryptamine) 5-HT3 radioligand binding (ligand: [3H] GR-65630); assay type: cell membranes, Membrane; details: hek293; Not Active = under 50% inhibition at 10 µM
[7] = molecular target: C-C chemokine receptor type 2 (Homo sapiens, UniProt P41597); assay type: cell membranes, CHO-K1, Membrane; details: cho-k1; note: in other assays of this panel Not Active means under 50% inhibition at 10 µM
[8] = molecular target: T2, Alpha-1D adrenergic receptor (Homo sapiens, UniProt P25100); assay type: cell membranes, HEK293, Membrane; details: hek293; note: in other assays of this panel Not Active means under 50% inhibition at 10 µM
T2 sequence (P25100 whole entry): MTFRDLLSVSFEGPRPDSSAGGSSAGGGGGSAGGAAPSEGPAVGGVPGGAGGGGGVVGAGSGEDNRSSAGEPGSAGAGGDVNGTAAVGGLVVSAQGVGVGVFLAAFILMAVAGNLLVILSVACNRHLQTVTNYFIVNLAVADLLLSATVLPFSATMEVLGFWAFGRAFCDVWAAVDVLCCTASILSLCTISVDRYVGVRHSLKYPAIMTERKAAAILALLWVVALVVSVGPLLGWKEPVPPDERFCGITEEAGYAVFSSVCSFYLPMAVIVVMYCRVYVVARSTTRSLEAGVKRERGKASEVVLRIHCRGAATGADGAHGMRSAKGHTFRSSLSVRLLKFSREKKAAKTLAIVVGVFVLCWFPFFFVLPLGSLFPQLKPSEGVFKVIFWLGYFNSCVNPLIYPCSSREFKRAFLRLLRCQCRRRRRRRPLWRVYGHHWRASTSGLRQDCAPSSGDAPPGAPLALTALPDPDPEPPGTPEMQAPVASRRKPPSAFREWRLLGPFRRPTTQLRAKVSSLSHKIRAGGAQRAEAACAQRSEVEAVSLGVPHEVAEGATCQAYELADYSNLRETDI

[9] = molecular target: D(3) dopamine receptor (Homo sapiens, UniProt P35462); test: DRUGMATRIX: Dopamine D3 radioligand binding (ligand: [3H] Spiperone); assay type: cell membranes, CHO, Membrane; details: cho
[10] = molecular target: T3, 5-hydroxytryptamine receptor 1A (Rattus norvegicus, UniProt P19327); assay type: cell membranes, CHO-K1, Membrane; details: cho-k1; note: in other assays of this panel Not Active means under 50% inhibition at 10 µM
T3 sequence (P19327 whole entry): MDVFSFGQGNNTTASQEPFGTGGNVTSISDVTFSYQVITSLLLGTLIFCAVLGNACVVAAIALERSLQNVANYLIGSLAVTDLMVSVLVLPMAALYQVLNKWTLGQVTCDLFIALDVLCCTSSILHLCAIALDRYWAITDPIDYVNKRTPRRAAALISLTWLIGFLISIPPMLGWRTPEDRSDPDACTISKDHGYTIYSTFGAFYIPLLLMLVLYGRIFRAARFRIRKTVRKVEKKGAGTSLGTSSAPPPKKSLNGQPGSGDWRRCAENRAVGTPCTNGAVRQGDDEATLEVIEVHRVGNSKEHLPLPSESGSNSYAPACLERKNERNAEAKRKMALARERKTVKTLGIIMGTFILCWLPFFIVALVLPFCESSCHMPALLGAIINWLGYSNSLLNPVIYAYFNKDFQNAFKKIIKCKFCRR

[11] = molecular target: Melanocortin receptor 3 (Homo sapiens, UniProt P41968); assay type: cell membranes, Membrane; details: hek293; note: in other assays of this panel Not Active means under 50% inhibition at 10 µM
[12] = molecular target: T4, Thromboxane-A synthase (Homo sapiens, UniProt P24557); test: biochemical; assay type: tissue-based, Platelet; details: for IC50: platelet
T4 sequence (P24557 whole entry): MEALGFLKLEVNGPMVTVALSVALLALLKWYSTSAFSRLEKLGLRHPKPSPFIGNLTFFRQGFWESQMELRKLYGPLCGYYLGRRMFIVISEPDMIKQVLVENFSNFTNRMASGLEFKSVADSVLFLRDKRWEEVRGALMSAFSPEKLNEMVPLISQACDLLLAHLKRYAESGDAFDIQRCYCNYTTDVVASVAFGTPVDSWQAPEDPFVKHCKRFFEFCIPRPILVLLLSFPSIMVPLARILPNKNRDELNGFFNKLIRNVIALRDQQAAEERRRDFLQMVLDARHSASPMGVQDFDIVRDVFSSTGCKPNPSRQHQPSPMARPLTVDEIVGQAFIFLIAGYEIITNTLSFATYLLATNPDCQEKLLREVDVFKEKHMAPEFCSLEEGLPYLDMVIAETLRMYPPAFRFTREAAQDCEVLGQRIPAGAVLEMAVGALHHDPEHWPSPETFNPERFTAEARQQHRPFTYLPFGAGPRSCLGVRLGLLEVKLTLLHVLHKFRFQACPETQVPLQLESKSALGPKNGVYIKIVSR

[13] = molecular target: Cytochrome P450 2E1 (Homo sapiens, UniProt P05181); details: bti-tn-5b1-4; note: in other assays of this panel Not Active means under 50% inhibition at 10 µM
Cytochrome P450 2E1, sequence (P05181 whole entry): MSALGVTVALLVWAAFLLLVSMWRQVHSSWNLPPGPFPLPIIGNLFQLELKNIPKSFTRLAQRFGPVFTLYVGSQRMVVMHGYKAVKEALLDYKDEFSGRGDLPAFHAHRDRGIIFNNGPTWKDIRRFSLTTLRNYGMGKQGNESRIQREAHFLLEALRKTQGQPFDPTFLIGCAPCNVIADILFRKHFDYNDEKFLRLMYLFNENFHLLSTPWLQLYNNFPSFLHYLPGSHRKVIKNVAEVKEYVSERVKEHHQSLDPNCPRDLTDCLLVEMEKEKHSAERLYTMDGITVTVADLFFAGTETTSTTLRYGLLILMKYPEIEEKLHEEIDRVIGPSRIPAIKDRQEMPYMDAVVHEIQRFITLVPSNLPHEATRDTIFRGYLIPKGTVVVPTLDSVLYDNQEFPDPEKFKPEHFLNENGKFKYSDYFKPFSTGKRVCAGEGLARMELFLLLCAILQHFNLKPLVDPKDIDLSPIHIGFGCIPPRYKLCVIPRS

Beta-1 adrenergic receptor, sequence (P08588 whole entry): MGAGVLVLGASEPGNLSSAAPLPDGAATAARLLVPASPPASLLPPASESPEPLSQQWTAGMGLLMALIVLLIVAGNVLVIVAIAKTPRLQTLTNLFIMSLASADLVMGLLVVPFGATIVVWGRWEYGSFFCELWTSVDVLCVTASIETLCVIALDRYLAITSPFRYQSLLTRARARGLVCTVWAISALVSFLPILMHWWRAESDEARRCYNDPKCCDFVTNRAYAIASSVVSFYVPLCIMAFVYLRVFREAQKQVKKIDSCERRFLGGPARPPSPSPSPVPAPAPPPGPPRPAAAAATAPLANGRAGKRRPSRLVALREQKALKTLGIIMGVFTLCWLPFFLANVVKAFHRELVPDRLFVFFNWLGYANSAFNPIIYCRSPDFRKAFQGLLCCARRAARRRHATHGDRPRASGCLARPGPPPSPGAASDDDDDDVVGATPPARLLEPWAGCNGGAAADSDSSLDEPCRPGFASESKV
5-hydroxytryptamine receptor 2B, sequence (P41595 whole entry): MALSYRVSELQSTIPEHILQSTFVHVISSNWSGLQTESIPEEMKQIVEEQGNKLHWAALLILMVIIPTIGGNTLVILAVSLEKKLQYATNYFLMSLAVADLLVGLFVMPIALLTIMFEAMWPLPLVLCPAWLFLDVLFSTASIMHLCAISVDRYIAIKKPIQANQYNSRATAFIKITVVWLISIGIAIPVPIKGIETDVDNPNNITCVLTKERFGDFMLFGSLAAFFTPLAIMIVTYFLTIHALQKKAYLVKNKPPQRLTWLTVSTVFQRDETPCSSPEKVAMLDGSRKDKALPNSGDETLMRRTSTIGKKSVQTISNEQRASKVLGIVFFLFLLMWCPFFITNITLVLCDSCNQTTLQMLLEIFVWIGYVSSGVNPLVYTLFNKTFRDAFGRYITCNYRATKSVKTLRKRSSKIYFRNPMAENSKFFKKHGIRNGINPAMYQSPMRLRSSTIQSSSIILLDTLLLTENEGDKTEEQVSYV
Beta-3 adrenergic receptor, sequence (P13945 whole entry): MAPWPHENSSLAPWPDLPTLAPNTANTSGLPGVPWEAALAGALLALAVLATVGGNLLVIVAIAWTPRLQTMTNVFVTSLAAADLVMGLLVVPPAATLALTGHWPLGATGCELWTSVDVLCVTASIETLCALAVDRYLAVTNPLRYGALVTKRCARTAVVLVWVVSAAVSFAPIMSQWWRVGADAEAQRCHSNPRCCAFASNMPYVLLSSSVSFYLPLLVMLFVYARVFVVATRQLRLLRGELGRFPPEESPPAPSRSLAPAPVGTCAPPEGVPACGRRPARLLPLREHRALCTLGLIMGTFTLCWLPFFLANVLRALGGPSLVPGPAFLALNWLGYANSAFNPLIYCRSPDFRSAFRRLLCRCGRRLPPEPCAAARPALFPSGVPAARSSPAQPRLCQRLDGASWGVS
Prostaglandin G/H synthase 1, sequence (P23219 whole entry): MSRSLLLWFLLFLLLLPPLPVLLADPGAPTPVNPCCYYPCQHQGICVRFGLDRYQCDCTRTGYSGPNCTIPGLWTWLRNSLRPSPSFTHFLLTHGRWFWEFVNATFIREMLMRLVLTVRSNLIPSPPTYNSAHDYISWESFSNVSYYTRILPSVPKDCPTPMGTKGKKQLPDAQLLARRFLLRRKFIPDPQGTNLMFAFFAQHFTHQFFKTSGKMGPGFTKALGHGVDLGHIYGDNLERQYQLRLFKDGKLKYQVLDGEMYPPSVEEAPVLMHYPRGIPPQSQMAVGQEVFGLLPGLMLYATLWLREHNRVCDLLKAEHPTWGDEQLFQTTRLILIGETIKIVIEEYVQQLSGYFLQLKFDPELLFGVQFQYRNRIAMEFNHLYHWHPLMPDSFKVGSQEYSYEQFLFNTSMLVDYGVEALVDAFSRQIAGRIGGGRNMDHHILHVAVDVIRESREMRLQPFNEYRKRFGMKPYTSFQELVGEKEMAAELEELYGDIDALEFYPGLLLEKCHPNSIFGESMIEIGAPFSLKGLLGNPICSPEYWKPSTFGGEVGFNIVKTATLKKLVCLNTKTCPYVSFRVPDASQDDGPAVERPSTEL
D(3) dopamine receptor, sequence (P35462 whole entry): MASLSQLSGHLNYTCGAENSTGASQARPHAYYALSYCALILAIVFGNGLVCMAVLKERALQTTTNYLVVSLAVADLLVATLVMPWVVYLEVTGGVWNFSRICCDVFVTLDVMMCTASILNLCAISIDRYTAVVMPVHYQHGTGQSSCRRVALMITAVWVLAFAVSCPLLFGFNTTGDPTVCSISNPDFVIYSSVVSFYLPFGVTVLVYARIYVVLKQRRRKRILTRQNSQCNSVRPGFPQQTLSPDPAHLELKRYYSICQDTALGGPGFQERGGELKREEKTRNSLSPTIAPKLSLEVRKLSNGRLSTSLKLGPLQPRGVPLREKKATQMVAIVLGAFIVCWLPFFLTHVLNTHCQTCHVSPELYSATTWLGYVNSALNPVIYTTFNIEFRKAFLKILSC
C-C chemokine receptor type 2, sequence (P41597 whole entry): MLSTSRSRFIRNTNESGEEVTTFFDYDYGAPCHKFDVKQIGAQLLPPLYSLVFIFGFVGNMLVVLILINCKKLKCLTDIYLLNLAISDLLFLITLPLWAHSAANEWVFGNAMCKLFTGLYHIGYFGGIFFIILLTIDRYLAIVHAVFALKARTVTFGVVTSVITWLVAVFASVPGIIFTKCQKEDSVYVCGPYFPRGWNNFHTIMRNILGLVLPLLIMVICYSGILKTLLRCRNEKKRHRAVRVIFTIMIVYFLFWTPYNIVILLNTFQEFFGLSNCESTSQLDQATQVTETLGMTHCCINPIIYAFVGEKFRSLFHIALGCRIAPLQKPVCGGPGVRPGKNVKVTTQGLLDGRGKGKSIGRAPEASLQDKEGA
Melanocortin receptor 3, sequence (P41968 whole entry): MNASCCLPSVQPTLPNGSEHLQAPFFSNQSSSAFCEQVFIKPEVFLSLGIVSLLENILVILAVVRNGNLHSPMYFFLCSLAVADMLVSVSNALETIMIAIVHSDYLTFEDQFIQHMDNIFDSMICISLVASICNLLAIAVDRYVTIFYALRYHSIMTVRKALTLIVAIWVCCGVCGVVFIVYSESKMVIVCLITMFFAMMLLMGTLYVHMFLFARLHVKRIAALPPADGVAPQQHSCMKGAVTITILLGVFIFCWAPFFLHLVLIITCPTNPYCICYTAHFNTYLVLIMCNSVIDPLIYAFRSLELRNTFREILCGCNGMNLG

SMILES | IC50 [1] | pIC50 ([2]; read-out: IC50) | IC50 [3] | IC50 [4] | IC50 [5] | IC50 [6] | Ki [6] | IC50 [7] | IC50 [8] | IC50 [9] | IC50 [10] | IC50 [11] | IC50 [12] | IC50 [13] | Ki [13] | IC50 [2] | pIC50 ([5]; read-out: IC50) | pKi ([5]; read-out: Ki) | pIC50 ([12]; read-out: IC50)
COc1ccc2cc(CC(=O)O)ccc2c1 | Not Active | 5.39 | Not Active | Not Active | Not Active | Not Active | Not Active | Not Active | Not Active | Not Active | Not Active | Not Active | Not Active | Not Active | Not Active |  |  |  | 
c1ccc2c(c1)cc1ccc3cccc4ccc2c1c34 | Not Active |  | Not Active | Not Active | Not Active | Not Active | Not Active | Not Active | Not Active | Not Active | Not Active | Not Active | Not Active | Not Active | Not Active | Not Active |  |  | 
CC=CC(=O)N(CC)c1ccccc1C | Not Active |  | Not Active | Not Active | Not Active | Not Active | Not Active | Not Active | Not Active | Not Active | Not Active | Not Active | Not Active | Not Active | Not Active | Not Active |  |  | 
C=C1C(=O)O[C@@H]2C3O[C@]3(C)CC/C=C(\C)CC[C@@H]12 (stereo partly specified) | Not Active |  | Not Active | Not Active | Not Active | Not Active | Not Active | Not Active | Not Active | Not Active | Not Active | Not Active | Not Active | Not Active | Not Active | Not Active |  |  | 
CC(/C=C1\SC(=S)N(CC(=O)O)C1=O)=C\c1ccccc1 | Not Active |  | Not Active | Not Active | Not Active | Not Active | Not Active | Not Active | Not Active | Not Active | Not Active | Not Active | Not Active | Not Active | Not Active | Not Active |  |  | 
CCCCCCCCCc1ccc(O)cc1 [4-NONYLPHENOL] | Not Active |  | Not Active | Not Active |  | Not Active | Not Active | Not Active | Not Active | Not Active | Not Active | Not Active | Not Active | Not Active | Not Active | Not Active | 5.38 | 5.50 | 
COc1ccc2c(c1)c(CC(=O)OCC(=O)O)c(C)n2C(=O)c1ccc(Cl)cc1 [ACEMETACIN] | Not Active |  | Not Active | Not Active | Not Active | Not Active | Not Active | Not Active | Not Active | Not Active | Not Active | Not Active | Not Active | Not Active | Not Active | Not Active |  |  | 
CCCSc1ccc2nc(NC(=O)OC)[nH]c2c1 [ALBENDAZOLE] | Not Active |  | Not Active | Not Active | Not Active | Not Active | Not Active | Not Active | Not Active | Not Active | Not Active | Not Active | Not Active | Not Active | Not Active | Not Active |  |  | 
O=c1cc(-c2ccccc2)oc2c1ccc1ccccc12 [ALPHA-NAPHTHOFLAVONE] | Not Active |  | Not Active | Not Active | Not Active | Not Active | Not Active | Not Active | Not Active | Not Active | Not Active | Not Active |  | Not Active | Not Active | Not Active |  |  | 5.17
NCC[C@H](O)C(=O)N[C@@H]1C[C@H](N)[C@@H](O[C@H]2O[C@H](CN)[C@@H](O)[C@H](O)[C@H]2O)[C@H](O)[C@H]1O[C@H]1O[C@H](CO)[C@@H](O)[C@H](N)[C@H]1O [AMIKACIN] | Not Active |  | Not Active | Not Active | Not Active | Not Active | Not Active | Not Active | Not Active | Not Active | Not Active | Not Active | Not Active | Not Active | Not Active | Not Active |  |  | 
